Like-named read-outs stand apart in the source and are kept apart here.
Biological target: T1, recombinant human NK3 receptor (Homo sapiens, UniProt P29371)
T1 construct: expressed in transfected cells; host or cells: HEK293 cells, transient expression; membranes
T1 sequence (P29371 1-465): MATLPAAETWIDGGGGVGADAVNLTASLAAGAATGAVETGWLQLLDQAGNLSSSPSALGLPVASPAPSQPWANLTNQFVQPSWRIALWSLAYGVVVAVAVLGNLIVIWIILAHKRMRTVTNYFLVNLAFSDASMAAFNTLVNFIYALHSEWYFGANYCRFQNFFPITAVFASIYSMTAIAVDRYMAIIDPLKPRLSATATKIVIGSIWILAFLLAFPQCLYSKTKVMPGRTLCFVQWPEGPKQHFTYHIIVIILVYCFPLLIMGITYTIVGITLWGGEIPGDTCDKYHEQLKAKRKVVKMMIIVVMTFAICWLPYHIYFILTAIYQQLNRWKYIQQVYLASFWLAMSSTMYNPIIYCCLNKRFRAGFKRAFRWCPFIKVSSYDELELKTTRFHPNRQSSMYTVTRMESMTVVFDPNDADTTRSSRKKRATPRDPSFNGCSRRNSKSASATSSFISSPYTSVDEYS
Assay: [3H]SR142801 competition binding assay

[1] = hNK-3 receptor affinity, membranes from HEK293 cells transiently expressing recombinant human NK3 receptor, [3H]SR142801, Cheng-Prussoff, read-out: Data Ki

Ki [1] | SMILES | Ki
53.7 nM | CN(C(=O)Nc1ccc(F)cc1)[C@H]1CN(C(=O)C2CCN(C(=O)C3(C)CC3)CC2)C[C@@H]1c1ccc(Cl)cc1 (racemic) [Example 96, rac-1-{(3R,4S)-4-(4-Chloro-phenyl)-1-[1-(1-methyl-cyclopropanecarbonyl)-piperidine-4-carbonyl]-pyrrolidin-3-yl}-3-(4-fluoro-phenyl)-1-methyl-urea] | –
31 nM | CN(CCC1CC1)C(=O)N(C)[C@H]1CN(C(=O)C2CCN(C(=O)C3(C)CC3)CC2)C[C@@H]1c1ccc(Cl)c(Cl)c1 (racemic) [Example 97, rac-1-(2-Cyclopropyl-ethyl)-3-{(3R,4S)-4-(3,4-dichloro-phenyl)-1-[1-(1-methyl-cyclopropanecarbonyl)-piperidine-4-carbonyl]-pyrrolidin-3-yl}-1,3-dimethyl-urea] | –
– | CN(C(=O)OCCC(C)(C)O)[C@H]1CN(C(=O)C2CCN(C(=O)C3(C)CC3)CC2)C[C@@H]1c1ccc(Cl)c(Cl)c1 (racemic) [Example 98, rac-{(3R,4S)-4-(3,4-Dichloro-phenyl)-1-[1-(1-methyl-cyclopropanecarbonyl)-piperidine-4-carbonyl]-pyrrolidin-3-yl}-methyl-carbamic acid 3-hydroxy-3-methyl-butyl ester] | 48 nM
– | CN(C(=O)OCC1CCC(F)(F)CC1)[C@H]1CN(C(=O)C2CCN(C(=O)C3(C)CC3)CC2)C[C@@H]1c1ccc(Cl)c(Cl)c1 (racemic) [Example 99, rac {(3R,4S)-4-(3,4-Dichloro-phenyl)-1-[1-(1-methyl-cyclopropanecarbonyl)-piperidine-4-carbonyl]-pyrrolidin-3-yl}-methyl-carbamic acid 4,4-difluoro-cyclohexylmethyl ester] | 1.6 nM
– | CN(C(=O)OC1CCC(F)(F)CC1)[C@H]1CN(C(=O)C2CCN(C(=O)C3(C)CC3)CC2)C[C@@H]1c1ccc(Cl)c(Cl)c1 (racemic) [Example 102, rac-{(3R,4S)-4-(3,4-Dichloro-phenyl)-1-[1-(1-methyl-cyclopropanecarbonyl)-piperidine-4-carbonyl]-pyrrolidin-3-yl}-methyl-carbamic acid 4,4-difluoro-cyclohexyl ester] | 4 nM
1.8 nM | CN(C(=O)OC1CCC(C(F)(F)F)CC1)[C@H]1CN(C(=O)C2CCN(C(=O)C3(C)CC3)CC2)C[C@@H]1c1ccc(Cl)c(Cl)c1 (mixture of isomers) [Example 103, rac-{(3R,4S)-4-(3,4-Dichloro-phenyl)-1-[1-(1-methyl-cyclopropanecarbonyl)-piperidine-4-carbonyl]-pyrrolidin-3-yl}-methyl-carbamic acid 4-trifluoromethyl-cyclohexyl ester] | –
– | CN(C(=O)OCC1CCC(F)(F)C1)[C@H]1CN(C(=O)C2CCN(C(=O)C3(C)CC3)CC2)C[C@@H]1c1ccc(Cl)c(Cl)c1 (mixture of isomers) [Example 111, rac-{(3R,4S)-4-(3,4-Dichloro-phenyl)-1-[1-(1-methyl-cyclopropanecarbonyl)-piperidine-4-carbonyl]-pyrrolidin-3-yl}-methyl-carbamic acid 3,3-difluoro-cyclopentylmethyl ester] | 4.4 nM
– | CN(C(=O)Oc1ccc(F)cc1)[C@@H]1CN(C(=O)C2CCN(c3ccc(C(=O)NC(C)(C)C)cn3)CC2)C[C@H]1c1ccc(Cl)cc1 (racemic) [Example 120, rac-[(3S,4R)-1-(5′-tert-Butylcarbamoyl-3,4,5,6-tetrahydro-2H-[1,2′]bipyridinyl-4-carbonyl)-4-(4-chloro-phenyl)-pyrrolidin-3-yl]-methyl-carbamic acid 4-fluoro-phenyl ester] | 1.6 nM
– | CN(C(=O)O[C@H]1CC[C@H](C(F)(F)F)CC1)[C@@H]1CN(C(=O)C2CCN(c3ccc(C(=O)NC(C)(C)C)cn3)CC2)C[C@H]1c1ccc(Cl)cc1 (racemic) [Example 121, rac-[(3S,4R)-1-(5′-tert-Butylcarbamoyl-3,4,5,6-tetrahydro-2H-[1,2′]bipyridinyl-4-carbonyl)-4-(4-chloro-phenyl)-pyrrolidin-3-yl]-methyl-carbamic acid 4-trifluoromethyl-cyclohexyl ester] | 6.6 nM
– | CN(C(=O)OCCCC(F)(F)F)[C@@H]1CN(C(=O)C2CCN(c3ccc(C(=O)NC(C)(C)C)cn3)CC2)C[C@H]1c1ccc(Cl)cc1 (racemic) [Example 124, rac-[(3S,4R)-1-(5′-tert-Butylcarbamoyl-3,4,5,6-tetrahydro-2H-[1,2′]bipyridinyl-4-carbonyl)-4-(4-chloro-phenyl)-pyrrolidin-3-yl]-methyl-carbamic acid 4,4,4-trifluoro-butyl ester] | 40.2 nM
– | CN(C(=O)OCCC(F)(F)F)[C@H]1CN(C(=O)C2CCN(C(=O)C3(C)CC3)CC2)C[C@@H]1c1ccc(Cl)c(Cl)c1 (single isomer, unassigned) [Example 29] | 14.9 nM
– | CN(C(=O)Oc1ccc(F)cc1)[C@H]1CN(C(=O)[C@H]2CC[C@H](O)CC2)C[C@@H]1c1ccc(Cl)c(Cl)c1 (stereo in doubt) [Example 45, [(3R,4S)-4-(3,4-Dichloro-phenyl)-1-(trans-4-hydroxy-cyclohexanecarbonyl)-pyrrolidin-3-yl]-methyl-carbamic acid 4-fluoro-phenyl ester] | 3.2 nM
26.4 nM | CN(C(=O)OCCC1CC1)[C@H]1CN(C(=O)C2CCN(C(=O)C3(C)CC3)CC2)C[C@@H]1c1ccc(Cl)cc1 (stereo in doubt) [Example 54, rac-{(3R,4S)-4-(4-Chloro-phenyl)-1-[1-(1-methyl-cyclopropanecarbonyl)-piperidine-4-carbonyl]-pyrrolidin-3-yl}-methyl-carbamic acid 2-cyclopropyl-ethyl ester] | –
– | CN(C(=O)Oc1ccc(F)cc1)[C@@H]1CN(C(=O)C2CCN(C(=O)C3(C)CC3)CC2)C[C@@H]1c1ccc(Cl)c(Cl)c1 (stereo in doubt) [Example 62, {(3S,4S)-4-(3,4-Dichloro-phenyl)-1-[1-(1-methyl-cyclopropanecarbonyl)-piperidine-4-carbonyl]-pyrrolidin-3-yl}-methyl-carbamic acid 4-fluoro-phenyl ester] | 31.4 nM
15.2 nM | CN(C(=O)OCCC1CC1)[C@@H]1CN(C(=O)C2CCN(C(=O)C3(C)CC3)CC2)C[C@H]1c1ccc(Cl)cc1 (stereo in doubt) [Example 64, {(3S,4R)-4-(4-Chloro-phenyl)-1-[1-(1-methyl-cyclopropanecarbonyl)-piperidine-4-carbonyl]-pyrrolidin-3-yl}-methyl-carbamic acid 2-cyclopropyl-ethyl ester] | –
– | CN(C(=O)OCCC(F)(F)F)[C@H]1CN(C(=O)C2CCN(C(=O)C3(C)CC3)CC2)C[C@@H]1c1ccc(Cl)c(Cl)c1 (stereo in doubt) [Example 86, {(3R,4S)-4-(3,4-dichloro-phenyl)-1-[1-(1-methyl-cyclopropanecarbonyl)-piperidine-4-carbonyl]-pyrrolidin-3-yl}-methyl-carbamic acid 3,3,3-trifluoro-propyl ester] | 60.4 nM
– | CN(C(=O)OCCC(F)(F)F)[C@@H]1CN(C(=O)C2CCN(C(=O)C3(C)CC3)CC2)C[C@H]1c1ccc(Cl)c(Cl)c1 (stereo in doubt) [Example 87, {(3S,4R)-4-(3,4-Dichloro-phenyl)-1-[1-(1-methyl-cyclopropanecarbonyl)-piperidine-4-carbonyl]-pyrrolidin-3-yl}-methyl-carbamic acid 3,3,3-trifluoro-propyl ester] | 9.2 nM
– | CN(C(=O)O[C@H]1CC[C@H](C(F)(F)F)CC1)[C@@H]1CN(C(=O)C2CCN(C3CCOCC3)CC2)CC1c1ccc(Cl)c(Cl)c1 (stereo in doubt) [Example 123, {(3S,4R)-4-(3,4-Dichloro-phenyl)-1-[1-(tetrahydro-pyran-4-yl)-piperidine-4-carbonyl]-pyrrolidin-3-yl}-methyl-carbamic acid 4-trifluoromethyl-cyclohexyl ester] | 2.8 nM
– | CN(C(=O)Oc1ccc(F)cc1)[C@H]1CN(C(=O)C2CCN(C(=O)C3(C)CC3)CC2)C[C@@H]1c1ccc(Cl)c(Cl)c1 [Example 5, {(3R,4S)-4-(3,4-Dichloro-phenyl)-1-[1-(1-methyl-cyclopropanecarbonyl)-piperidine-4-carbonyl]-pyrrolidin-3-yl}-methyl-carbamic acid 4-fluoro-phenyl ester] | 56.2 nM
– | CN(C(=O)Oc1ccc(F)cc1)[C@@H]1CN(C(=O)C2CCN(C(=O)C3(C)CC3)CC2)C[C@H]1c1ccc(Cl)c(Cl)c1 [Example 6, {(3S,4R)-4-(3,4-Dichloro-phenyl)-1-[1-(1-methyl-cyclopropanecarbonyl)-piperidine-4-carbonyl]-pyrrolidin-3-yl}-methyl-carbamic acid 4-fluoro-phenyl ester] | 0.5 nM
– | Cc1ccc(OC(=O)N(C)[C@@H]2CN(C(=O)C3CCN(C(=O)C4(C)CC4)CC3)C[C@H]2c2ccc(Cl)c(Cl)c2)cc1 [Example 17, {(3S,4R)-4-(3,4-Dichloro-phenyl)-1-[1-(1-methyl-cyclopropanecarbonyl)-piperidine-4-carbonyl]-pyrrolidin-3-yl}-methyl-carbamic acid p-tolyl ester] | 0.7 nM
– | CN(C(=O)Oc1ccc(Cl)cc1)[C@@H]1CN(C(=O)C2CCN(C(=O)C3(C)CC3)CC2)C[C@H]1c1ccc(Cl)c(Cl)c1 [Example 19, {(3S,4R)-4-(3,4-Dichloro-phenyl)-1-[1-(1-methyl-cyclopropanecarbonyl)-piperidine-4-carbonyl]-pyrrolidin-3-yl}-methyl-carbamic acid 4-chlorophenyl ester] | 0.2 nM

Reference: US9226916B2, “Pyrrolidine derivatives” (HOFFMANN-LA ROCHE INC., priority 2009, dated 2016)
